Data taken from PubChem BioAssay AID1259407 (Chemical Carcinogenesis Research Information System (CCRIS), 2018).
Activity calls are given as the source filed them. The rule behind the calls is not given here.

Tested on: CCRIS mutagenicity, Ames/micronucleus/aberration tests
Assay: CCRIS mutagenicity studies
[1] = Test System: AMES SALMONELLA TYPHIMURIUM, Strain/Indicator: TA98, Metabolic Activation: HAMSTER, LIVER, S-9, AROCLOR 1254 (10%), Method: PREINCUBATION
[2] = Test System: AMES SALMONELLA TYPHIMURIUM, Strain/Indicator: TA98, Metabolic Activation: NONE, Method: PREINCUBATION
[3] = Test System: AMES SALMONELLA TYPHIMURIUM, Strain/Indicator: TA98, Metabolic Activation: RAT, LIVER, S-9, AROCLOR 1254 (10%), Method: PREINCUBATION
[4] = Test System: AMES SALMONELLA TYPHIMURIUM, Strain/Indicator: TA100, Metabolic Activation: HAMSTER, LIVER, S-9, AROCLOR 1254 (10%), Method: PREINCUBATION
[5] = Test System: AMES SALMONELLA TYPHIMURIUM, Strain/Indicator: TA100, Metabolic Activation: NONE, Method: PREINCUBATION
[6] = Test System: AMES SALMONELLA TYPHIMURIUM, Strain/Indicator: TA100, Metabolic Activation: NONE, Method: STANDARD PLATE
[7] = Test System: AMES SALMONELLA TYPHIMURIUM, Strain/Indicator: TA100, Metabolic Activation: RAT, LIVER, S-9, AROCLOR 1254 (10%), Method: PREINCUBATION
[8] = Test System: AMES SALMONELLA TYPHIMURIUM, Strain/Indicator: TA1535, Metabolic Activation: HAMSTER, LIVER, S-9, AROCLOR 1254 (10%), Method: PREINCUBATION
[9] = Test System: AMES SALMONELLA TYPHIMURIUM, Strain/Indicator: TA1535, Metabolic Activation: NONE, Method: PREINCUBATION
[10] = Test System: AMES SALMONELLA TYPHIMURIUM, Strain/Indicator: TA1535, Metabolic Activation: NONE, Method: STANDARD PLATE
[11] = Test System: AMES SALMONELLA TYPHIMURIUM, Strain/Indicator: TA1535, Metabolic Activation: RAT, LIVER, S-9, AROCLOR 1254 (10%), Method: PREINCUBATION
[12] = Test System: AMES SALMONELLA TYPHIMURIUM, Strain/Indicator: TA1537, Metabolic Activation: HAMSTER, LIVER, S-9, AROCLOR 1254 (10%), Method: PREINCUBATION
[13] = Test System: AMES SALMONELLA TYPHIMURIUM, Strain/Indicator: TA1537, Metabolic Activation: NONE, Method: PREINCUBATION
[14] = Test System: AMES SALMONELLA TYPHIMURIUM, Strain/Indicator: TA1537, Metabolic Activation: RAT, LIVER, S-9, AROCLOR 1254 (10%), Method: PREINCUBATION

Measured: mutagenic call

COP(=O)(OC)C(O)C(Cl)(Cl)Cl (stereo unspecified)
inactive: Test System: AMES SALMONELLA TYPHIMURIUM, Strain/Indicator: TA97, Metabolic Activation: NONE, Method: SPOT TEST inactive; negative | Test System: AMES SALMONELLA TYPHIMURIUM, Strain/Indicator: TA97, Metabolic Activation: NONE, Method: STANDARD PLATE inactive; negative | Test System: AMES SALMONELLA TYPHIMURIUM, Strain/Indicator: TA97, Metabolic Activation: RAT, LIVER, S-9, NAPHTHOFLAVONE AND PHENOBARBITAL, Method: STANDARD PLATE inactive; negative | Test System: AMES SALMONELLA TYPHIMURIUM, Strain/Indicator: TA97, Metabolic Activation: RAT, LIVER, S-9, PHENOBARBITAL AND NAPHTHOFLAVONE, Method: SPOT TEST inactive; negative | [1] inactive; negative | [2] inactive; negative | Test System: AMES SALMONELLA TYPHIMURIUM, Strain/Indicator: TA98, Metabolic Activation: NONE, Method: SPOT TEST inactive; negative | Test System: AMES SALMONELLA TYPHIMURIUM, Strain/Indicator: TA98, Metabolic Activation: NONE, Method: STANDARD PLATE inactive; negative | [3] inactive; negative | Test System: AMES SALMONELLA TYPHIMURIUM, Strain/Indicator: TA98, Metabolic Activation: RAT, LIVER, S-9, NAPHTHOFLAVONE AND PHENOBARBITAL, Method: STANDARD PLATE inactive; negative | Test System: AMES SALMONELLA TYPHIMURIUM, Strain/Indicator: TA98, Metabolic Activation: RAT, LIVER, S-9, PHENOBARBITAL AND NAPHTHOFLAVONE, Method: SPOT TEST inactive; negative | [4] inactive; negative | [5] inactive; negative | Test System: AMES SALMONELLA TYPHIMURIUM, Strain/Indicator: TA100, Metabolic Activation: NONE, Method: SPOT TEST inactive; negative | [6] inactive; negative | [7] inactive; negative | Test System: AMES SALMONELLA TYPHIMURIUM, Strain/Indicator: TA100, Metabolic Activation: RAT, LIVER, S-9, NAPHTHOFLAVONE AND PHENOBARBITAL, Method: FLUCTUATION TEST inactive; negative | Test System: AMES SALMONELLA TYPHIMURIUM, Strain/Indicator: TA100, Metabolic Activation: RAT, LIVER, S-9, NAPHTHOFLAVONE AND PHENOBARBITAL, Method: STANDARD PLATE inactive; negative | Test System: AMES SALMONELLA TYPHIMURIUM, Strain/Indicator: TA100, Metabolic Activation: RAT, LIVER, S-9, PHENOBARBITAL AND NAPHTHOFLAVONE, Method: SPOT TEST inactive; negative | Test System: AMES SALMONELLA TYPHIMURIUM, Strain/Indicator: TA104, Metabolic Activation: NONE, Method: STANDARD PLATE inactive; negative | Test System: AMES SALMONELLA TYPHIMURIUM, Strain/Indicator: TA104, Metabolic Activation: RAT, LIVER, S-9, NAPHTHOFLAVONE AND PHENOBARBITAL, Method: STANDARD PLATE inactive; negative | [8] inactive; negative | [9] inactive; negative | Test System: AMES SALMONELLA TYPHIMURIUM, Strain/Indicator: TA1535, Metabolic Activation: NONE, Method: SPOT TEST inactive; negative | [10] inactive; negative | [11] inactive; negative | Test System: AMES SALMONELLA TYPHIMURIUM, Strain/Indicator: TA1535, Metabolic Activation: RAT, LIVER, S-9, NAPHTHOFLAVONE AND PHENOBARBITAL, Method: PREINCUBATION inactive; negative | Test System: AMES SALMONELLA TYPHIMURIUM, Strain/Indicator: TA1535, Metabolic Activation: RAT, LIVER, S-9, NAPHTHOFLAVONE AND PHENOBARBITAL, Method: STANDARD PLATE inactive; negative | Test System: AMES SALMONELLA TYPHIMURIUM, Strain/Indicator: TA1535, Metabolic Activation: RAT, LIVER, S-9, PHENOBARBITAL AND NAPHTHOFLAVONE, Method: SPOT TEST inactive; negative | [12] inactive; negative | [13] inactive; negative | [14] inactive; negative | Test System: CHINESE HAMSTER V-79, Strain/Indicator: V-79/OUABAIN, Metabolic Activation: NONE inactive; negative
active: End Point: IN VIVO MICRONUCLEUS, Test System: PREIMPLANTATION EMBRYOS, Species: MOUSE, Strain/Sex: ICR FEMALE/EMBRYO, Route: MATERNAL SINGLE IP DOSE, EMBRYO HARVEST ON G.D 3 active; positive | End Point: In vivo micronucleus, Test System: Micronucleated, binucleated and multinucleated hepatocytes, Species: Mouse, Strain/Sex: ddY/Male, Route: Intravenous active; positive for binucleated and multinucleated cells when agent administered after | Test System: AMES SALMONELLA TYPHIMURIUM, Strain/Indicator: TA100, Metabolic Activation: RAT, LIVER, S-9, NAPHTHOFLAVONE AND PHENOBARBITAL, Method: PREINCUBATION active; positive | Test System: AMES SALMONELLA TYPHIMURIUM, Strain/Indicator: TA100, Metabolic Activation: S-9 MIX, Method: STANDARD PLATE active; positive | Test System: AMES SALMONELLA TYPHIMURIUM, Strain/Indicator: TA104, Metabolic Activation: NONE, Method: PREINCUBATION active; positive | Test System: AMES SALMONELLA TYPHIMURIUM, Strain/Indicator: TA104, Metabolic Activation: RAT, LIVER, S-9, NAPHTHOFLAVONE AND PHENOBARBITAL, Method: PREINCUBATION active; positive | Test System: E. COLI, Strain/Indicator: WP2, Metabolic Activation: NONE, Method: STANDARD PLATE active; positive | Test System: E. COLI, Strain/Indicator: WP2, Metabolic Activation: RAT, LIVER, S-9, AROCLOR 1254, Method: STANDARD PLATE active; positive | Test System: E. COLI, Strain/Indicator: WP2 UVRA, Metabolic Activation: NONE, Method: STANDARD PLATE active; positive | Test System: E. COLI, Strain/Indicator: WP2 UVRA, Metabolic Activation: RAT, LIVER, S-9, AROCLOR 1254, Method: STANDARD PLATE active; positive | Test System: UDS HUMAN CELLS, Strain/Indicator: EUE LINE/THY INCORP, Metabolic Activation: NONE, Method: AUTORADIOGRAPHY active; positive | Test System: UDS HUMAN FIBROBLASTS, Strain/Indicator: THY INCORP (NON-S-PHASE), Metabolic Activation: NONE, Method: LIQUID SCINTILLATION COUNTING active; positive

CCOCC1CO1 (stereo unspecified)
active: [6] active; positive | Test System: AMES SALMONELLA TYPHIMURIUM, Strain/Indicator: TA100, Metabolic Activation: RAT, LIVER, S-9, AROCLOR 1254, Method: STANDARD PLATE active; positive | [10] active; positive | Test System: AMES SALMONELLA TYPHIMURIUM, Strain/Indicator: TA1535, Metabolic Activation: RAT, LIVER, S-9, AROCLOR 1254, Method: STANDARD PLATE active; positive

CC(C)CCC[C@@H](C)[C@H]1CC[C@H]2[C@@H]3CC=C4C[C@@H](OC(=O)Cc5ccc(N(CCCl)CCCl)cc5)CC[C@]4(C)[C@H]3CC[C@]12C
inactive: [1] inactive; negative | [2] inactive; negative | [3] inactive; negative | [4] inactive; negative | [5] inactive; negative | [7] inactive; negative | [8] inactive; negative | [9] inactive; negative | [11] inactive; negative | [12] inactive; negative | [13] inactive; negative | [14] inactive; negative
